2 compounds from ChEMBL document CHEMBL6087460, “Generating a Peptide Library Using the Repeats of Amino Acid Scaffolds Created by Sliding the Framework of a 7-mer Human Chemerin Segment and Discovery of Potent Antibacterial and Antimycobacterial Peptides” (J Med Chem, 2025) can be followed below.

Data set [1] has as its system Staphylococcus aureus. The experiment in a line: Induction of resistance development in Staphylococcus aureus ATCC 25923 assessed as fold increase in MIC at sub-MIC measured after 30 passages relative to control. It counts as functional.
In data set [2] the test system is Staphylococcus aureus. Description: Induction of membrane depolarization in Staphylococcus aureus ATCC 25923 by diSC3-5 dye based analysis. Format: functional, organism-based.
Data set [3] concerns Escherichia coli. Description: Induction of cell membrane damage in Escherichia coli ATCC 25922 at 3 times MIC incubated for 60 mins by SEM analysis. It counts as functional, organism-based.
Data set [4] relates to Escherichia coli. Description: Disruption of plasma membrane integrity in Escherichia coli ATCC 25922 by SYTOX-Green uptake assay. Format: functional, organism-based.
Data set [5] deals with Escherichia coli. The experiment in a line: Bactericidal activity against Escherichia coli ATCC 25922 at MIC incubated for 30 mins by time kill assay. It counts as functional, organism-based.
Data set [6] has as its system Escherichia coli. The experiment in a line: Bactericidal activity against Escherichia coli ATCC 25922 incubated for 16 to 18 hrs. It counts as functional. To be noted: time 16-18 hrs.
Data set [7] deals with Mycolicibacterium smegmatis. Description: Antimycobacterial activity against Mycobacterium smegmatis assessed as reduction in bacterial growth at 2 times MIC pretreated for 1 hr followed by compound removal and subsequent culturing in fresh media without compound for 24 hrs measured after 4 days. It counts as functional, organism-based.
In data set [8] the test system is Escherichia coli. The experiment in a line: Induction of membrane depolarization in Escherichia coli ATCC 25922 by diSC3-5 dye based analysis. Format: functional, organism-based.
The subject of data set [9] is Escherichia coli. Description: Antibacterial activity against Escherichia coli ATCC 25922 incubated for 16 to 18 hrs in presence of 10 percent human serum by broth dilution assay. To be noted: time 16-18 hrs. Format: functional.
In data set [10] the test system is Staphylococcus aureus. The experiment in a line: Bactericidal activity against Staphylococcus aureus ATCC 25923 incubated for 16 to 18 hrs. It counts as functional. To be noted: time 16-18 hrs.
The next data set concerns Pseudomonas aeruginosa. Description: Antibacterial activity against Pseudomonas aeruginosa ATCC BAA-427 incubated for 16 to 18 hrs by broth dilution assay. Format: functional. Conditions: time 16-18 hrs. (In general: Broth dilution looks for growth in wells or tubes with falling amounts of substance.)
Data set [11] has as its system Staphylococcus aureus. The experiment in a line: Induction of cell membrane damage in Staphylococcus aureus ATCC 25923 at 3 times MIC incubated for 60 mins by SEM analysis. Format: functional, organism-based.
For data set [12], the system named is Staphylococcus aureus. Description: Antibacterial activity against Staphylococcus aureus ATCC 25923 incubated for 16 to 18 hrs in presence of 10 percent human serum by broth dilution assay. Conditions: time 16-18 hrs. It counts as functional.
Data set [13] has as its system Staphylococcus aureus. Description: Bactericidal activity against Staphylococcus aureus ATCC 25923 at MIC incubated for 45 mins by time kill assay. Format: functional, organism-based.
Data set [14] in a line: Toxicity in mouse assessed as change in serum AST level at 15 mg/kg, iv administered each day for 5 days measured after 7 days post-last dose. To be noted: in vivo, 120 h, time 5 day. Format: organism-based.
The subject of data set [15] is Escherichia coli. Description: Antibacterial activity against Escherichia coli ATCC 25922 incubated for 16 to 18 hrs by broth dilution assay. It counts as functional. Conditions: time 16-18 hrs.
For data set [16], the system named is Staphylococcus aureus. The experiment in a line: Disruption of plasma membrane integrity in Staphylococcus aureus ATCC 25923 by SYTOX-Green uptake assay. It counts as functional, organism-based.
Data set [17] deals with Staphylococcus aureus. The experiment in a line: Induction of resistance development in methicillin-resistant Staphylococcus aureus BAA-44 assessed as fold increase in MIC at sub-MIC measured after 30 passages relative to control. It counts as functional.
Another data set relates to Bacillus subtilis. The experiment in a line: Antibacterial activity against Bacillus subtilis 6633 incubated for 16 to 18 hrs by broth dilution assay. Format: functional. Conditions: time 16-18 hrs.
The nature of data set [18]: Retention time of compound by RP-HPLC method. It counts as physicochemical.
The subject of data set [19] is Escherichia coli. The experiment in a line: Disruption of membrane integrity in Escherichia coli ATCC 25922 by PI staining based analysis. Format: functional, organism-based.
Data set [20] can be described thus: Cytotoxicity against mouse 3T3-L1 cells assessed as cell viability at 100 uM incubated for 24 hrs by MTT assay relative to control. Format: toxicity, cell-based. To be noted: 3T3-L1 cells, read-out: Activity.
The test system of data set [21] is Staphylococcus aureus. The experiment in a line: Antibacterial activity against methicillin-resistant Staphylococcus aureus BAA-44 incubated for 16 to 18 hrs by broth dilution assay. It counts as functional. To be noted: time 16-18 hrs.
In data set [22] the test system is Staphylococcus aureus. Description: Induction of resistance development in Staphylococcus aureus ATCC 25923 assessed as fold increase in MIC at sub-MIC measured after 25 passages relative to control. It counts as functional.
The subject of data set [23] is Mycolicibacterium smegmatis. Description: Antitubercular activity against Mycobacterium smegmatis incubated for 24 hrs by rezasurin dye based assay. It counts as functional.
The nature of data set [24]: Toxicity in mouse assessed as animal survival at 15 mg/kg, iv administered each day for 5 days measured after 7 days post-last dose. Format: organism-based. Conditions: in vivo, 120 h, time 5 day.
Data set [25] is described as follows: Hemolytic activity in human RBC assessed as disruption of membrane integrity by Alexa Fluor-Annexin V staining based analysis. It counts as toxicity, cell-based. To be noted: erythrocyte.
Data set [26] can be described thus: Hemolytic activity in human RBC measured after 40 mins by absorbance based assay. Format: toxicity, cell-based, Erythrocyte. To be noted: human red blood cells.
The subject of data set [27] is Escherichia coli. The experiment in a line: Bactericidal activity against Escherichia coli ATCC 25922 at MIC incubated for 45 mins by time kill assay. Format: functional, organism-based.
A short description of data set [28]: Toxicity in mouse assessed as change in serum ALT level at 15 mg/kg, iv administered each day for 5 days measured after 7 days post-last dose. It counts as organism-based. Conditions: in vivo, 120 h, time 5 day.
A short description of data set [29]: Cytotoxicity against rat L6 cells assessed as cell viability at 100 uM incubated for 24 hrs by MTT assay relative to control. It counts as toxicity, cell-based. To be noted: L6 cells, read-out: Activity. On the technique in general: Formazan colour is commonly taken as a measure of viable cells.
Data set [30] concerns Mycolicibacterium smegmatis. Description: Disruption of cell membrane integrity in Mycobacterium smegmatis incubated for 2 hrs by EtBr uptake assay. Format: functional, organism-based.
A further data set deals with Klebsiella pneumoniae. The experiment in a line: Antibacterial activity against Klebsiella pneumoniae ATCC 27736 incubated for 16 to 18 hrs by broth dilution assay. Format: functional. Conditions: time 16-18 hrs.
The test system of data set [31] is Escherichia coli. Description: Induction of resistance development in Escherichia coli ATCC 25922 assessed as fold increase in MIC at sub-MIC measured after 30 passages relative to control. It counts as functional.
Data set [32] deals with Escherichia coli. The experiment in a line: Induction of resistance development in Escherichia coli ATCC 25922 assessed as fold increase in MIC at sub-MIC measured after 25 passages relative to control. It counts as functional.
Data set [33] deals with Staphylococcus aureus. The experiment in a line: Bactericidal activity against Staphylococcus aureus ATCC 25923 at MIC incubated for 30 mins by time kill assay. Format: functional, organism-based.
In data set [34] the test system is Staphylococcus aureus. Description: Antibacterial activity against Staphylococcus aureus ATCC 25923 incubated for 16 to 18 hrs by broth dilution assay. It counts as functional. To be noted: time 16-18 hrs.
Data set [35] in a line: Toxicity in BALB/c mouse infected with Mycobacterium bovis BCG assessed as animal survival at 2.5 to 5 mg/kg, iv administered once a day for 2 weeks. Format: organism-based. To be noted: in vivo, 336 h, dose 2.5-5 mg/kg.
The test system of data set [36] is Staphylococcus aureus. Description: Disruption of membrane integrity in Staphylococcus aureus ATCC 25923 by PI staining based analysis. Format: functional, organism-based.
The subject of data set [37] is Staphylococcus aureus. Description: Antibacterial activity against methicillin-resistant Staphylococcus aureus 33591 incubated for 16 to 18 hrs by broth dilution assay. It counts as functional. Conditions: time 16-18 hrs.
Data set [38] relates to Staphylococcus aureus. The experiment in a line: Induction of resistance development in methicillin-resistant Staphylococcus aureus 33591 assessed as fold increase in MIC at sub-MIC measured after 30 passages relative to control. Format: functional.
Data set [39] can be described thus: Drug localization in cytoplasm of Escherichia coli ATCC 25922 at 3 times MIC by confocal microscopy. It counts as ADME, subcellular.

Calls of active or inactive are those of the source. Where a SMILES comes first, the peptide text is derived from it.

Take H-VLGRVLGRVLGRVLGR-OH: the “fold change (FC)” value in the data set with Staphylococcus aureus [1] is reported as 4; in the data set with Staphylococcus aureus [17], 4; in the data set with Staphylococcus aureus [22] it was 2; with Escherichia coli [31], 4; with Escherichia coli [32], 2; with Staphylococcus aureus [38], 4. Besides, the outcome (in the data set with Staphylococcus aureus [2]; in the data set on Escherichia coli [3]; in the data set on Escherichia coli [4]; in data set [7]; in the data set with Escherichia coli [8]; in the data set on Staphylococcus aureus [11]) was Active. Also, the result with Staphylococcus aureus [13], in the data set with Staphylococcus aureus [16], in the data set on Escherichia coli [19], with Escherichia coli [27] and in the data set on Staphylococcus aureus [36] was Active. For the same compound, the Activity entry in the data set on Escherichia coli [5] is “Active; Emerged As Swiftest Molecule”; in data set [14], “Non-toxic”; in data set [24] it was “Non-toxic”; in data set [25], “Non-toxic”; in data set [28] it was “Non-toxic”; with Staphylococcus aureus [33], “Active; Emerged As Swiftest Molecule”. The Activity result in data set [35] is on record as “Non-toxic”. The MBC with Escherichia coli [6] and in the data set on Staphylococcus aureus [10] was 3.6 µM each time. Besides, the minimal inhibitory concentration (MIC) – broadly, the smallest concentration in the dilution series that meets the test's criterion for growth inhibition – was 14.4 µM in the data set with Escherichia coli [9]; 7.3 µM in the data set on Pseudomonas aeruginosa; 14.4 µM in the data set with Staphylococcus aureus [12]; 1.8 µM against Escherichia coli [15]; 3.6 µM in the data set with Bacillus subtilis; 3.6 µM against Staphylococcus aureus [21]. For the same compound, the MIC amounted to 2.5 µM in data set [23], 3.6 µM with Klebsiella pneumoniae, 3.6 µM in the data set on Staphylococcus aureus [34] and 7.3 µM in the data set on Staphylococcus aureus [37]. This compound also registered a Retention_time in [18] of 20.54 min. Besides, the viability at 24 h, 100 µM in [20] and in data set [29] was 75% each time. The HC50 (commonly the concentration giving 50% haemolysis) at 40 min in [26] turned out to be 2 mM. Besides, the outcome in [30] was inactive.
Regarding `CC(C)C[C@H](NC(=O)[C@H](CCCNC(=N)N)NC(=O)CNC(=O)[C@H](CC(C)C)NC(=O)[C@H](CCCNC(=N)N)NC(=O)CNC(=O)[C@H](CC(C)C)NC(=O)[C@H](CCCNC(=N)N)NC(=O)CNC(=O)[C@H](CC(C)C)NC(=O)[C@H](CCCNC(=N)N)NC(=O)CNC(=O)[C@H](CC(C)C)NC(=O)[C@H](CCCNC(=N)N)NC(=O)CNC(=O)c1cc(C(=O)O)ccc1-c1c2ccc(=[N+](C)C)cc-2oc2cc(N(C)C)ccc12)C(=O)O.[Cl-]` (HELM PEPTIDE1{[CN(C)c1ccc2c(-c3ccc(C(=O)O)cc3C(=O)[*:2])c3ccc(=[N+](C)C)cc-3oc2c1].G.R.L.G.R.L.G.R.L.G.R.L.G.R.L}$$$$V2.0), the Drug uptake entry in data set [39] was “Active”.
